Measurements from US20030166537A1, “Use of GDNF for treating corneal defects” (Biopharm Gesellschaft Zur Biotechnologischen Entwicklung …, priority 1999, published 2003).

Tests used:
[1] = system: primary human corneal epithelial cells; assay: in vitro wound healing assay (scratch wound), primary cells; assay type: cell-based; settings: 250 ng/ml; 18 h; control less than 10%
Description: (§1) For in vitro wound healing assays primary corneal epithelial cells and cells from the corneal epithelial cell line were seeded at a density of 5×10^5 onto 60 mm plastic dishes with 2 mm grid (Sarstedt, Numbrecht, Germany) and cultured for 2 days until subconfluency. For experiments with artemin primary cultured rabbit corneal epithelial cells were used. These cells had been isolated with Dispase (1,2 U/ml) and trypsin/EDTA. Rabbit cells had been cultured in medium 500 with additives (Cascade Biologies).
(§2) The cell layer was injured under the microscope by inducing several parallel scratches with a soft plastic cell scrubber (Falcon, Becton and Dickinson, Heidelberg, Germany). The tip of the scrubber was cut and measured about 1 mm and consequently the width of the scratch in the cell layer was also about 1 mm. Selected areas in the dishes were marked with a very fine marker pen and consecutive images were taken at different time points at 5×magnification under an inverted phase contrast microscope (Axiovert 25, Zeiss, Jena, Germany) equipped with a video camera. Following the experimental injury dishes were incubated in SHEM medium either containing no growth factors (control) or containing either GDNF (250 ng/ml) (recombinant human GDNF expressed in E. coli), NGF (250 ng/ml) (Boehringer Mannheim, Germany) or EGF ([…]). For experiments investigating artemin cells were cultured in medium 500 without additives and 250 ng artemin was added. For each condition four representative areas were evaluated within three dishes. The mean diameter of the scratch in each representative area was set as 100% at the beginning of the experiment. 18 hours later the mean diameter of the same scratch was calculated again and expressed in percent of the diameter at the beginning of the experiment.

[2] = system: ERK1, ERK2, JNK1 and JNK2; assay: western blot of phosphorylated MAP kinases in cultured human corneal epithelium; assay type: cell-based; settings: for phosphorylation of ERK1 and ERK2: 200 ng/ml factor vs serum-free control medium; for phosphorylation of ERK1 and ERK2 / phosphorylation of JNK1/2: human epithelial cells; for phosphorylation of JNK1/2: vs control
Description: (§3) In order to evaluate the effect of GDNF and other neurotrophic factors on the activation of signal transduction pathways in cultured corneal epithelial and stromal keratocytes, western blots were performed for detecting an accumulation of phosphorylated MAP kinases ERK and JNK in the presence of GDNF, NGF and BDNF. Human stromal keratocytes were cultured in RPMI 1640 medium containing L-glutamine (glutaMAX) or DMEM with 10% FBS for one day and starved in serum-free medium for another day. Cultures were then washed with PBS and incubated in serum-free DMEM without additives or with recombinant human GDNF (200 ng/ml), recombinant human NGF (200 ng/ml) and recombinant human BDNF (200 ng/ml) (all obtained from R & D Systems, Mineapolis, Minn., USA) for 30 min. Some cultures were incubated with an inhibitor of MAP kinases (PD 98059, Torcris Cookson Ballwin, Mo., USA) at 100 μM for 1 h prior to exposure to neurotrophines. After washing with PBS, culture cells were solubilized in lysis buffer containing 50 mM Tris-Cl (pH 8.0), 150 mM NaCl, 0.02% sodium azide, 100 μg/ml PMSF, 1% Triton X-100 and a mixture of several protein inhibitors (Complete®, Boehringer Mannheim) (one tablet/50 ml buffer). 50 μg total protein per lane was fractionated by a 10% STS-MOPS NUPAGE Bis-tris gel (NOVEX, San Diego, Calif., USA) and blotted onto nitrocellulose membrane. Membranes were stained with diluted polyclonal antibodies against ERK1, ERK2, JNK1 and JNK2 (Santa Cruz Biotechnology, Santa Cruz, Calif., USA). Also a polyclonal antibody was used which recognizes the […] form of either ERK1 and ERK2 which was raised against the catalytic core of the phosphorylated threonine residue 183 and tyrosine residue 185 of mammalian ERK2. Similarily, a polyclonal antibody recognizing the phosphorylated form of JNK1 and JNK2 was used (both from Promega). In the last step the membranes were visualized with the ECL western blot analysis system (Amersham).

[3] = system: corneal epithelial cells from the SV40 transformed cell line; assay: in vitro wound healing assay (scratch wound), cell line; assay type: cell-based, human; settings: 250 ng/ml; 18 h; control 20%±4.5
Description: as §1, §2

[4] = system: ERK1, ERK2, JNK1 and JNK2; assay: western blot of phosphorylated MAP kinases in cultured human corneal stromal keratocytes; assay type: cell-based; settings: for phosphorylation of ERK1 and ERK2: 200 ng/ml factor vs control; for phosphorylation of JNK1: vs serum-free medium
Description: as §3

| Molecule | gap in the cell monolayer filled [1] | phosphorylation of ERK1 and ERK2 [2] | phosphorylation of JNK1/2 [2] | gap in the cell monolayer filled [3] | activated JNK2 [4] | phosphorylation of ERK1 and ERK2 [4] | phosphorylation of JNK1 [4] | effect on BDNF-induced phosphorylation of ERK1 and ERK2 ([2]; PD 98059 100 μM 1 h before BDNF 200 ng/ml, epithelial cells) | effect on GDNF-induced phosphorylation of ERK1 and ERK2 ([2]; PD 98059 100 μM 1 h before GDNF 200 ng/ml, epithelial cells) | effect on NGF-induced phosphorylation of ERK1 and ERK2 ([2]; PD 98059 100 μM 1 h before NGF 200 ng/ml, epithelial cells) | effect on phosphorylation of ERK1 in presence of BDNF ([4]; PD 98059 with BDNF 200 ng/ml) | effect on GDNF-induced phosphorylation of ERK1 ([4]; PD 98059 with GDNF 200 ng/ml) | effect on NGF-induced phosphorylation of ERK1 ([4]; PD 98059 with NGF 200 ng/ml) |
| --- | --- | --- | --- | --- | --- | --- | --- | --- | --- | --- | --- | --- | --- |
| NGF: recombinant human NGF, neurotrophic factor used as comparison / positive control | 19.6%±3.1 | increased | not induced | 27%±7.1 | not induced | induced | weakly induced | – | – | – | – | – | – |
| COc1cccc(-c2cc(=O)c3ccccc3o2)c1N [PD 98059, reference compound] | – | – | – | – | – | – | – | not inhibited | prevented | prevented | remained unchanged | inhibited | inhibited |
| BDNF: recombinant human BDNF, neurotrophic factor used for comparison (protein, UniProt P23560 19-247, looked up) Neurotrophic factor BDNF …: APMKEANIRGQGGLAYPGVRTHGTLESVNGPKAGSRGLTSLADTFEHVIEELLDEDQKVRPNEENNKDADLYTSRVMLSSQVPLEPPLLFLLEEYKNYLDAANMSMRVRRHSDPARRGELSVCDSISEWVTAADKKTAVDMSGGTVTVLEKVPVSKGQLKQYFYETKCNPMGYTKEGCRGIDKRHWNSQCRTTQSYVRALTMDSKKRIGWRFIRIDTSCVCTLTIKRGR | – | increased | not induced | – | not induced | did not induce | weakly induced | – | – | – | – | – | – |
